Data from ChEMBL document CHEMBL5346873, “Strategic modification of low-activity natural antimicrobial peptides confers antibacterial potential in vitro and in vivo” (Eur J Med Chem, 2023).
Activity calls are given as the source filed them. The rule behind the calls is not given here.

Key:
Klebsiella pneumoniae [1] = experiment: Antibacterial activity against Klebsiella pneumoniae expressing NDM-1 in presence of human serum; type: functional, organism-based
Acinetobacter baumannii [2] = experiment: Additive antibacterial activity against Acinetobacter baumannii in presence of meropenem by checkerboard microtiter plate assay; type: functional
Vibrio vulnificus [3] = experiment: Bactericidal activity against Vibrio vulnificus 204 incubated overnight; type: functional
Vibrio vulnificus [4] = experiment: Antibacterial activity against Vibrio vulnificus in presence of 1 to 10 ug/ml pepsin; type: functional, organism-based
Enterococcus faecium = experiment: Bactericidal activity against Enterococcus faecium incubated overnight; type: functional
Acinetobacter baumannii [5] = experiment: Synergistic antibacterial activity against Acinetobacter baumannii in presence of doxycycline by checkerboard microtiter plate assay; type: functional
Vibrio vulnificus [6] = experiment: Synergistic antibacterial activity against Vibrio vulnificus assessed as fractional inhibitory concentration in presence of meropenem by checkerboard microtiter plate assay; type: functional
Salmonella enterica = experiment: Bactericidal activity against Salmonella enterica incubated overnight; type: functional
[7] = Dermal toxicity in BALB/c mouse assessed as morphological changes at 125 mg/kg, TOPp measured after 48 hrs; type: organism-based; conditions: in vivo, topical_or_ocular
Vibrio vulnificus [8] = experiment: Synergistic antibacterial activity against Vibrio vulnificus assessed as doxycycline MIC by checkerboard microtiter plate assay; type: functional
Escherichia coli = experiment: Synergistic antibacterial activity against Escherichia coli assessed as fractional inhibitory concentration in presence of meropenem by checkerboard microtiter plate assay; type: functional
Vibrio vulnificus [9] = experiment: Antibacterial activity against Vibrio vulnificus treated with preheated compounds; type: functional, organism-based
Klebsiella aerogenes [10] = experiment: Bactericidal activity against Enterobacter aerogenes incubated overnight; type: functional
Streptococcus iniae [11] = experiment: Synergistic antibacterial activity against Streptococcus iniae assessed as fractional inhibitory concentration in presence of doxycycline by checkerboard microtiter plate assay; type: functional
Vibrio harveyi [12] = experiment: Bactericidal activity against Vibrio harveyi incubated overnight; type: functional
Vibrio vulnificus [13] = experiment: Antibiofilm activity against Vibrio vulnificus V2 assessed as inhibition of biofilm formation at 25 ug/ml incubated for 24 hrs by crystal violet staining based assay; type: functional, organism-based; conditions: dose 25.0 µg/ml
[14] = Cytotoxicity against human HaCaT cells incubated for 24 hrs by alamar blue assay; type: toxicity, cell-based; conditions: read-out: LD50
Klebsiella aerogenes [15] = experiment: Synergistic antibacterial activity against Enterobacter aerogenes in presence of meropenem by checkerboard microtiter plate assay; type: functional
Candida tropicalis [16] = experiment: Fungicidal activity against Candida tropicalis incubated overnight; type: functional
Acinetobacter baumannii [17] = experiment: Synergistic antibacterial activity against Acinetobacter baumannii assessed as fractional inhibitory concentration in presence of doxycycline by checkerboard microtiter plate assay; type: functional
[18] = system: Staphylococcus haemolyticus; experiment: Bactericidal activity against Staphylococcus haemolyticus incubated overnight; type: functional
Streptococcus agalactiae [19] = experiment: Synergistic antibacterial activity against Streptococcus agalactiae assessed as fractional inhibitory concentration in presence of doxycycline by checkerboard microtiter plate assay; type: functional
Vibrio vulnificus [20] = experiment: Antibacterial activity against Vibrio vulnificus 204 incubated for 16 to 20 hrs; type: functional; conditions: time 16-20 hrs
[21] = Hemolytic activity in human RBC at 100 ug/ml incubated for 1 hr; type: toxicity, cell-based, Erythrocyte; conditions: human red blood cells (erythrocytes), at 100 µg/mL, read-out: Activity
Nakaseomyces glabratus = experiment: Fungicidal activity against Candida glabrata incubated overnight; type: functional
Klebsiella pneumoniae [22] = experiment: Bactericidal activity against NDM Klebsiella pneumoniae incubated overnight; type: functional
Vibrio vulnificus [23] = experiment: Antibacterial activity against Vibrio vulnificus V2 incubated for 16 to 20 hrs; type: functional; conditions: time 16-20 hrs
[24] = Cytotoxicity against human HaCaT cells incubated for 24 hrs by LDH assay; type: toxicity, cell-based; conditions: read-out: LD50
Streptococcus agalactiae [25] = experiment: Synergistic antibacterial activity against Streptococcus agalactiae in presence of doxycycline by checkerboard microtiter plate assay; type: functional
Cell membrane = experiment: Induction of outer membrane lysis in Vibrio vulnificus at 100 ug/ml by NPN-dye based fluorescence analysis; type: subcellular; conditions: dose 100.0 µg/ml
Streptococcus agalactiae [26] = experiment: Antibacterial activity against Streptococcus agalactiae incubated for 16 to 20 hrs; type: functional; conditions: time 16-20 hrs
Pseudomonas aeruginosa = experiment: Antibacterial activity against Pseudomonas aeruginosa incubated for 16 to 20 hrs; type: functional; conditions: time 16-20 hrs
Streptococcus agalactiae [27] = experiment: Synergistic antibacterial activity against Streptococcus agalactiae assessed as fractional inhibitory concentration in presence of meropenem by checkerboard microtiter plate assay; type: functional
Salmonella typhimurium [28] = experiment: Antibacterial activity against Salmonella typhimurium incubated for 16 to 20 hrs; type: functional, Salmonella enterica subsp. enterica serovar Typhimurium; conditions: Salmonella enterica; time 16-20 hrs
Acinetobacter baumannii [29] = experiment: Synergistic antibacterial activity against Acinetobacter baumannii assessed as doxycycline MIC by checkerboard microtiter plate assay; type: functional
Vibrio vulnificus [30] = experiment: Antibiofilm activity against Vibrio vulnificus V2 assessed as inhibition of biofilm formation at 50 to 100 ug/ml incubated for 24 hrs by crystal violet staining based assay; type: functional, organism-based; conditions: dose 50-100 µg/ml
Streptococcus agalactiae [31] = experiment: Synergistic antibacterial activity against Streptococcus agalactiae assessed as doxycycline MIC by checkerboard microtiter plate assay; type: functional
Vibrio vulnificus [32] = experiment: Antibacterial activity against Vibrio vulnificus 204 assessed as induction of resistance development by measuring fold increase in MIC measured after 15 passages; type: functional
Vibrio vulnificus [33] = experiment: Antibiofilm activity against Vibrio vulnificus V1 assessed as inhibition of biofilm formation at 50 to 100 ug/ml incubated for 24 hrs by crystal violet staining based assay; type: functional, organism-based; conditions: dose 50-100 µg/ml
Salmonella typhimurium [34] = experiment: Bactericidal activity against Salmonella typhimurium incubated overnight; type: functional, Salmonella enterica subsp. enterica serovar Typhimurium; conditions: Salmonella enterica
Candida tropicalis [35] = experiment: Antifungal activity against Candida tropicalis incubated for 16 to 20 hrs; type: functional; conditions: time 16-20 hrs
Acinetobacter baumannii [36] = experiment: Additive antibacterial activity against Acinetobacter baumannii assessed as fractional inhibitory concentration in presence of meropenem by checkerboard microtiter plate assay; type: functional
Vibrio anguillarum [37] = experiment: Bactericidal activity against Listonella anguillarum incubated overnight; type: functional
Klebsiella pneumoniae [38] = experiment: Synergistic antibacterial activity against Klebsiella pneumoniae expressing NDM1 in presence of doxycycline by checkerboard microtiter plate assay; type: functional
Streptococcus iniae [39] = experiment: Additive antibacterial activity against Streptococcus iniae assessed as meropenem MIC by checkerboard microtiter plate assay; type: functional
Enterococcus faecalis [40] = experiment: Antibacterial activity against Enterococcus faecalis incubated for 16 to 20 hrs; type: functional; conditions: time 16-20 hrs
Vibrio vulnificus [41] = experiment: Antibacterial activity against Vibrio vulnificus in presence of proteinase K; type: functional, organism-based
Enterococcus faecalis [42] = experiment: Bactericidal activity against Enterococcus faecalis incubated overnight; type: functional
Klebsiella aerogenes [43] = experiment: Synergistic antibacterial activity against Enterobacter aerogenes assessed as meropenem MIC by checkerboard microtiter plate assay; type: functional
Vibrio anguillarum [44] = experiment: Antibacterial activity against Listonella anguillarum incubated for 16 to 20 hrs; type: functional; conditions: time 16-20 hrs
Vibrio vulnificus [45] = experiment: Antibacterial activity against Vibrio vulnificus 204 assessed as LPS neutralization at 0.25 to 2 times MIC measured after 1 hr by LAL assay; type: functional, organism-based
Streptococcus agalactiae [46] = experiment: Synergistic antibacterial activity against Streptococcus agalactiae in presence of meropenem by checkerboard microtiter plate assay; type: functional
Vibrio vulnificus [47] = experiment: Antibiofilm activity against Vibrio vulnificus V1 assessed as inhibition of biofilm formation at 25 ug/ml incubated for 24 hrs by crystal violet staining based assay; type: functional, organism-based; conditions: dose 25.0 µg/ml
Klebsiella aerogenes [48] = experiment: Synergistic antibacterial activity against Enterobacter aerogenes assessed as fractional inhibitory concentration in presence of meropenem by checkerboard microtiter plate assay; type: functional
Streptococcus iniae [49] = experiment: Additive antibacterial activity against Streptococcus iniae in presence of meropenem by checkerboard microtiter plate assay; type: functional
Vibrio vulnificus [50] = experiment: Antibacterial activity against Vibrio vulnificus V1 incubated for 16 to 20 hrs; type: functional; conditions: time 16-20 hrs
Vibrio harveyi [51] = experiment: Antibacterial activity against Vibrio harveyi incubated for 16 to 20 hrs; type: functional; conditions: time 16-20 hrs
Vibrio vulnificus [52] = experiment: Bactericidal activity against Vibrio vulnificus V3 incubated overnight; type: functional

## H-FKWKSVLKGVKGFVKGYF-OH
Klebsiella pneumoniae [1]
  Activity: Active
Acinetobacter baumannii [2]
  MIC: 0.048 µg/mL
Vibrio vulnificus [3]
  MBC: 6.25 µg/mL
Vibrio vulnificus [4]
  Activity: Active
Enterococcus faecium
  MBC: > 100 µg/mL
Acinetobacter baumannii [5]
  MIC: 0.048 µg/mL
Vibrio vulnificus [6]
  FIC: 0.14
Salmonella enterica
  MBC: 12.5 µg/mL
[7]
  Activity: Non-Toxic
Vibrio vulnificus [8]
  MIC: 0.006 µg/mL
Escherichia coli
  FIC: 0.07
Vibrio vulnificus [9]
  Activity: Active
Klebsiella aerogenes [10]
  MBC: 12.5 µg/mL
Streptococcus iniae [11]
  FIC: 0.04
Vibrio harveyi [12]
  MBC: > 100 µg/mL
Vibrio vulnificus [13]
  Activity: inactive
[14]
  CC50 at 24 h: > 100 µg/mL
Klebsiella aerogenes [15]
  MIC: 0.195 µg/mL
Candida tropicalis [16]
  MFC: 100 µg/mL
Acinetobacter baumannii [17]
  FIC: 0.07
[18]
  MBC: < 1.56 µg/mL
Streptococcus agalactiae [19]
  FIC: 0.14
Vibrio vulnificus [20]
  MIC: 6.25 µg/mL
[21]
  hemolysis at 1 h, 100 ug/ml: 26.5%
Nakaseomyces glabratus
  MFC: > 100 µg/mL
Klebsiella pneumoniae [22]
  MBC: 25 µg/mL
Vibrio vulnificus [23]
  MIC: 12.5 µg/mL
[24]
  CC50 at 24 h: > 100 µg/mL
Streptococcus agalactiae [25]
  MIC: 0.097 µg/mL
Cell membrane
  Activity: Active
Streptococcus agalactiae [26]
  MIC: 3.12 µg/mL
Pseudomonas aeruginosa
  MIC: 25 µg/mL
Streptococcus agalactiae [27]
  FIC: 0.07
Salmonella typhimurium [28]
  MIC: 12.5 µg/mL
Acinetobacter baumannii [29]
  MIC: 0.003 µg/mL
Vibrio vulnificus [30]
  Activity: Active
Streptococcus agalactiae [31]
  MIC: 0.006 µg/mL
Vibrio vulnificus [32]
  fold change (FC): <2
Vibrio vulnificus [33]
  Activity: Active
Salmonella typhimurium [34]
  MBC: 12.5 µg/mL
Candida tropicalis [35]
  MIC: 50 µg/mL
Acinetobacter baumannii [36]
  FIC: 0.51
Vibrio anguillarum [37]
  MBC: 100 µg/mL
Klebsiella pneumoniae [38]
  MIC: 1.56 µg/mL
Streptococcus iniae [39]
  MIC: 0.195 µg/mL
Enterococcus faecalis [40]
  MIC: 50 µg/mL
Vibrio vulnificus [41]
  Activity: Active
Enterococcus faecalis [42]
  MBC: > 100 µg/mL
Klebsiella aerogenes [43]
  MIC: 0.003 µg/mL
Vibrio anguillarum [44]
  MIC: 100 µg/mL
Vibrio vulnificus [45]
  Activity: Active
Streptococcus agalactiae [46]
  MIC: 0.097 µg/mL
Vibrio vulnificus [47]
  Activity: inactive
Klebsiella aerogenes [48]
  FIC: 0.14
Streptococcus iniae [49]
  MIC: 0.024 µg/mL
Vibrio vulnificus [50]
  MIC: 12.5 µg/mL
Vibrio harveyi [51]
  MIC: > 100 µg/mL
Vibrio vulnificus [52]
  MBC: 12.5 µg/mL

## H-KKCIAKAILKKAKKLLKKLVNP-OH
Klebsiella pneumoniae [1]
  Activity: Active
Acinetobacter baumannii [2]
  MIC: 0.048 µg/mL
Vibrio vulnificus [3]
  MBC: 6.25 µg/mL
Vibrio vulnificus [4]
  Activity: Active
Enterococcus faecium
  MBC: > 100 µg/mL
Acinetobacter baumannii [5]
  MIC: 0.048 µg/mL
Vibrio vulnificus [6]
  FIC: 0.14
Salmonella enterica
  MBC: 12.5 µg/mL
[7]
  Activity: Non-Toxic
Vibrio vulnificus [8]
  MIC: 0.006 µg/mL
Escherichia coli
  FIC: 0.07
Vibrio vulnificus [9]
  Activity: Active
Klebsiella aerogenes [10]
  MBC: 12.5 µg/mL
Streptococcus iniae [11]
  FIC: 0.04
Vibrio harveyi [12]
  MBC: 25 µg/mL
Vibrio vulnificus [13]
  Activity: inactive
[14]
  CC50 at 24 h: > 100 µg/mL
Klebsiella aerogenes [15]
  MIC: 0.097 µg/mL
Candida tropicalis [16]
  MFC: > 100 µg/mL
Acinetobacter baumannii [17]
  FIC: 0.07
[18]
  MBC: < 1.56 µg/mL
Streptococcus agalactiae [19]
  FIC: 0.14
Vibrio vulnificus [20]
  MIC: 6.25 µg/mL
[21]
  hemolysis at 1 h, 100 ug/ml: 5.5%
Nakaseomyces glabratus
  MFC: > 100 µg/mL
Klebsiella pneumoniae [22]
  MBC: 25 µg/mL
Vibrio vulnificus [23]
  MIC: 12.5 µg/mL
[24]
  CC50 at 24 h: > 100 µg/mL
Streptococcus agalactiae [25]
  MIC: 0.195 µg/mL
Cell membrane
  Activity: Active
Streptococcus agalactiae [26]
  MIC: 3.12 µg/mL
Pseudomonas aeruginosa
  MIC: 25 µg/mL
Streptococcus agalactiae [27]
  FIC: 0.07
Salmonella typhimurium [28]
  MIC: 50 µg/mL
Acinetobacter baumannii [29]
  MIC: 0.003 µg/mL
Vibrio vulnificus [30]
  Activity: Active
Streptococcus agalactiae [31]
  MIC: 0.006 µg/mL
Vibrio vulnificus [32]
  fold change (FC): <2
Vibrio vulnificus [33]
  Activity: Active
Salmonella typhimurium [34]
  MBC: 100 µg/mL
Candida tropicalis [35]
  MIC: 100 µg/mL
Acinetobacter baumannii [36]
  FIC: 0.51
Vibrio anguillarum [37]
  MBC: 50 µg/mL
Klebsiella pneumoniae [38]
  MIC: 3.12 µg/mL
Streptococcus iniae [39]
  MIC: 0.195 µg/mL
Enterococcus faecalis [40]
  MIC: 25 µg/mL
Vibrio vulnificus [41]
  Activity: Active
Enterococcus faecalis [42]
  MBC: > 100 µg/mL
Klebsiella aerogenes [43]
  MIC: 0.003 µg/mL
Vibrio anguillarum [44]
  MIC: 50 µg/mL
Vibrio vulnificus [45]
  Activity: inactive
Streptococcus agalactiae [46]
  MIC: 0.195 µg/mL
Vibrio vulnificus [47]
  Activity: inactive
Klebsiella aerogenes [48]
  FIC: 0.14
Streptococcus iniae [49]
  MIC: 0.048 µg/mL
Vibrio vulnificus [50]
  MIC: 12.5 µg/mL
Vibrio harveyi [51]
  MIC: 25 µg/mL
Vibrio vulnificus [52]
  MBC: 12.5 µg/mL
